Reference: patent US20100028259A1, “USE OF ORGANIC CATION TRANSPORTERS FOR CANCER DIAGNOSIS AND THERAPY” (The Regents of the University of California, priority 2006, published 2010)
Where two headings read alike, the source gives them in different places.

How the values were obtained:
HEK-MOCK cells [1] = experiment: MTT drug sensitivity assay in HEK-MOCK cells (control of HEK-hOCT2); format: cell-based, human
Protocol: (§1) Cytotoxicity of the platinum-based compounds was measured by MTT (thiazolyl blue tetrazolium bromide) assay. Cells were seeded in 100 μl of the culture medium without any antibiotics in 96-well plates at a predetermined cell density. For HEK 293 cells, poly-D-lysine coated plates were used. After overnight incubation, the platinum-based compounds were then added to the culture medium to give the indicated final concentrations. For the OCT inhibitor studies, the inhibitors (i.e., disopyramide or cimetidine) were added to the medium at a specified concentration immediately before the addition of the platinum-based compounds. After incubation for a specified time period, the drug-containing medium was replaced with fresh, drug-free medium and the incubation was continued for a total of 72 hours (start from the addition of platinum-based compounds). Then, the MTT assay was performed similarly as described in Alley et al., Cancer Res., 48:589-601 (1988). […] The maximal cell growth was the cell growth in the medium without any platinum-based compounds; C is the concentration of the platinum-based compound, and γ is the slope factor.
Briefly, the cells were seeded in 96-well plates at a density of 5,000 cells/well for the transfected MDCK cells or 12,000 cells/well for the transfected HEK 293 cells. The platinum-based drugs were added on the following day. After the specified time periods of drug exposure, the drug-containing medium was replaced with fresh, drug-free medium, and the incubation was continued for a total of 72 hours (start from the time when the drug was added). After incubation, the cell growth was determined by an MTT assay. Data are expressed as mean±SD from 3 to 6 independent experiments with each performed in quadruplicate. The resistance factor (RF) was defined as the ratio of the mean IC50 value in the MOCK cells to that in the OCT-transfected cells.

HT29 = experiment: MTT drug sensitivity, colon cancer cell line HT29; format: cell-based, human
Protocol: as §1, with “After overnight incubation, the platinum-based compounds were then added to the culture medium to give the indicated final concentrations.” left out
(§2) The cell seeding density was 6,000-, 8,000-, 6,000-, 15,000-12,000- and 4,000 cells/well for HCT116, HT29, RKO, SW620, LS180, and DLD cells, respectively. When cimetidine (1.5 mM) was used, it was added to the wells immediately before the addition of the platinum-based drugs. The resistance factor (RF) was defined as the ratio of the mean IC50 value in the presence to that in the absence of cimetidine. Data are expressed as mean±SD from six measurements, and each measurement was performed in quadruplicate.

SW620 = experiment: MTT drug sensitivity, colon cancer cell line SW620; format: cell-based, human
Protocol: as §1, with “After overnight incubation, the platinum-based compounds were then added to the culture medium to give the indicated final concentrations.” left out
as §2

MDCK-MOCK cells = experiment: Cellular accumulation of platinum in MDCK-MOCK cells (ICP-MS); format: in vitro ADME, canine; settings: 2-hr exposure
Protocol: (§3) For the inhibitor studies, the incubation medium also contained disopyramide (150 μM). […] For the inhibitor studies, the incubation medium also contained cimetidine (1.5 mM). […] After drug exposure, the cells were washed with ice-cold PBS three times and harvested by scraping and centrifugation. The cell-associated platinum was determined by ICP-MS and normalized for protein content. Data are expressed as mean±SD from a single experiment performed in triplicate. Experiments were replicated for OCT1 and OCT2, and similar results were obtained.
(§4) The cellular accumulation of platinum was determined as described in Holzer et al., Mol. Pharmacol., 66:817-823 (2004) with some modifications. Briefly, the cells were grown in 100 mm×20 mm dishes in the culture medium without any antibiotics to over 90% confluence. For HEK 293 cells, poly-D-lysine coated dishes were used. For platinum accumulation, the cells were incubated in the culture medium containing the indicated concentrations of the platinum compounds at 37° C. in 5% CO2 for 2 hr unless specified. After incubation, the dishes were immediately placed on ice and the cells were washed with 6 ml of ice-cold PBS for three times and collected with a rubber policeman. The cell pellets were obtained by centrifugation at 400×g and at 4° C. for 15 min. For the OCT inhibitor studies, the incubation medium also contained the indicated inhibitor (i.e., disopyramide or cimetidine) in addition to the platinum-based compounds. The resulting cell pellets were then dissolved into 200 μl of 70% nitric acid at 65° C. for at least 2.5 hours, and then distilled water containing 10 ppb of iridium (Sigma) and 0.1% Triton X-100 was added to the samples to dilute nitric acid to 7%. The platinum content was measured by inductively plasma coupled mass spectrometry (ICP-MS) in the Analytical Facility at the University of California at Santa Cruz (Santa Cruz, Calif.). Cell lysates from a set of identical cultures were used for BCA protein assay.

HEK-hOCT2 cells = experiment: Cellular accumulation of platinum in HEK-hOCT2 cells (ICP-MS); format: in vitro ADME, human; settings: 2-hr exposure
Protocol: as §3, §4

HEK-MOCK cells [2] = experiment: Cellular accumulation of platinum in HEK-MOCK cells (ICP-MS); format: in vitro ADME, human; settings: cimetidine 1.5 mM
Protocol: as §3
The cellular accumulation of platinum was determined as described in Holzer et al., Mol. Pharmacol., 66:817-823 (2004) with some modifications. Briefly, the cells were grown in 100 mm×20 mm dishes in the culture medium without any antibiotics to over 90% confluence. For HEK 293 cells, poly-D-lysine coated dishes were used. For platinum accumulation, the cells were incubated in the culture medium containing the indicated concentrations of the platinum compounds at 37° C. in 5% CO2 for 2 hr unless specified. […] The platinum content was measured by inductively plasma coupled mass spectrometry (ICP-MS) in the Analytical Facility at the University of California at Santa Cruz (Santa Cruz, Calif.). […]

`O=C1[O][Pt]2([NH][C@@H]3CCCC[C@H]3[NH]2)[O]C1=O` [oxaliplatin] gave an IC50 (HEK-MOCK cells [1]; co-incubation with cimetidine 1.5 mM, read-out: IC50 in HEK-MOCK, cimetidine-treated) of 9.5 ± 2.95 µM, an IC50 (HEK-MOCK cells [1]; drug exposure 7 hour, Table 2, read-out: IC50 HEK-MOCK) of 2.99 ± 1.51 µM and an IC50 (HEK-MOCK cells [1]; drug exposure 24 hour, Table 2, read-out: IC50 HEK-MOCK) of 1.5 ± 0.69 µM. For the same compound, the IC50 (HEK-MOCK cells [1]; drug exposure 72 hour, Table 2, read-out: IC50 HEK-MOCK) was 0.93 ± 0.056 µM, the IC50 (HT29; HT29, absence of cimetidine, read-out: IC50 Control) was 4.56 ± 1.4 µM and the IC50 (HT29; HT29, cimetidine 1.5 mM, read-out: IC50 Cimetidine-treated) was 52.1 ± 18.5 µM. For the same compound, the IC50 (SW620; SW620, absence of cimetidine, read-out: IC50 Control) was 2.81 ± 1 µM, the IC50 (SW620; SW620, cimetidine 1.5 mM, read-out: IC50 Cimetidine-treated) was 14.2 ± 2.81 µM and the “cellular platinum accumulation rate in MDCK-MOCK, disopyramide-treated” value (MDCK-MOCK cells; 3 μM, disopyramide 150 μM) was 3.23±0.31 pmol/mg protein-hour. For the same compound, the “cellular platinum accumulation rate in MDCK-MOCK” value (MDCK-MOCK cells; drug 3 μM) was 2.94±0.11 pmol/mg protein-hr, the “cellular platinum accumulation rate in HEK-hOCT2, cimetidine” value (HEK-hOCT2 cells; 0.3 μM, cimetidine 1.5 mM) was 1.80±0.13 pmol/mg protein-hr and the “cellular platinum accumulation rate in HEK-hOCT2” value (HEK-hOCT2 cells; drug 0.3 μM) was 20.2±1.54 pmol/mg protein-hr. For the same compound, the “effect of cimetidine on platinum accumulation / cellular uptake in HEK-MOCK” value (HEK-MOCK cells [2]) was “significant decrease”.
